In ChEMBL document CHEMBL4507300 (2021):

What was measured:
[1] = molecular target: Homeodomain-interacting protein kinase 4 (Homo sapiens) (UniProt Q8NE63); settings: Compound concentration 1000.0 nM
[2] = molecular target: Phosphorylase b kinase gamma catalytic chain, skeletal muscle/heart isoform (Homo sapiens) (UniProt Q16816); settings: Compound concentration 1000.0 nM
[3] = tested on: Tyrosine-protein kinase ABL1 (Homo sapiens), P00519 [H396P]; settings: Compound concentration 1000.0 nM
[4] = tested on: Receptor-type tyrosine-protein kinase FLT3 (Homo sapiens), P36888 [D835Y]; settings: Compound concentration 1000.0 nM
[5] = molecular target: Serine/threonine-protein kinase OSR1 (Homo sapiens) (UniProt O95747); settings: Compound concentration 1000.0 nM
[6] = molecular target: SNF-related serine/threonine-protein kinase (Homo sapiens) (UniProt Q9NRH2); settings: Compound concentration 1000.0 nM
[7] = molecular target: TRAF2 and NCK-interacting protein kinase (Homo sapiens) (UniProt Q9UKE5); settings: Compound concentration 1000.0 nM
[8] = molecular target: Mitogen-activated protein kinase kinase kinase kinase 5 (Homo sapiens) (UniProt Q9Y4K4); settings: Compound concentration 1000.0 nM
[9] = molecular target: Cyclin-dependent kinase 2 (Homo sapiens) (UniProt P24941); settings: Compound concentration 1000.0 nM
[10] = molecular target: Tyrosine-protein kinase ITK/TSK (Homo sapiens) (UniProt Q08881); settings: Compound concentration 1000.0 nM
[11] = molecular target: Phosphatidylinositol 4,5-bisphosphate 3-kinase catalytic subunit delta isoform (Homo sapiens) (UniProt O00329); settings: Compound concentration 1000.0 nM
[12] = molecular target: Rhodopsin kinase GRK7 (Homo sapiens) (UniProt Q8WTQ7); settings: Compound concentration 1000.0 nM
[13] = molecular target: Serine/threonine-protein kinase TNNI3K (Homo sapiens) (UniProt Q59H18); settings: Compound concentration 1000.0 nM
[14] = molecular target: Microtubule-associated serine/threonine-protein kinase 1 (Homo sapiens) (UniProt Q9Y2H9); settings: Compound concentration 1000.0 nM
[15] = molecular target: Phosphatidylinositol 4-kinase beta (Homo sapiens) (UniProt Q9UBF8); settings: Compound concentration 1000.0 nM
[16] = molecular target: Mast/stem cell growth factor receptor Kit (Homo sapiens) (UniProt P10721); settings: Compound concentration 1000.0 nM
[17] = molecular target: D(2) dopamine receptor (Homo sapiens) (UniProt P14416); settings: Compound concentration 10.0 uM
[18] = molecular target: Misshapen-like kinase 1 (Homo sapiens) (UniProt Q8N4C8); settings: Compound concentration 1000.0 nM
[19] = molecular target: Tyrosine-protein kinase ABL1 (Homo sapiens) (UniProt P00519); settings: Compound concentration 1000.0 nM
[20] = molecular target: Ribosomal protein S6 kinase alpha-2 (Homo sapiens) (UniProt Q15349); settings: Compound concentration 1000.0 nM
[21] = molecular target: Epidermal growth factor receptor (Homo sapiens) (UniProt P00533); settings: Compound concentration 1000.0 nM
[22] = molecular target: Tyrosine-protein kinase Fgr (Homo sapiens) (UniProt P09769); settings: Compound concentration 1000.0 nM
[23] = molecular target: Receptor tyrosine-protein kinase erbB-2 (Homo sapiens) (UniProt P04626); settings: Compound concentration 1000.0 nM
[24] = molecular target: Serine/threonine-protein kinase D2 (Homo sapiens) (UniProt Q9BZL6); settings: Compound concentration 1000.0 nM
[25] = molecular target: NT-3 growth factor receptor (Homo sapiens) (UniProt Q16288); settings: Compound concentration 1000.0 nM
[26] = molecular target: Protein kinase C epsilon type (Homo sapiens) (UniProt Q02156); settings: Compound concentration 1000.0 nM
[27] = molecular target: Discoidin domain-containing receptor 2 (Homo sapiens) (UniProt Q16832); settings: Compound concentration 1000.0 nM
[28] = molecular target: Serine/threonine-protein kinase PLK3 (Homo sapiens) (UniProt Q9H4B4); settings: Compound concentration 1000.0 nM
[29] = molecular target: Muscarinic acetylcholine receptor M5 (Homo sapiens) (UniProt P08912); settings: Compound concentration 10.0 uM
[30] = molecular target: Maternal embryonic leucine zipper kinase (Homo sapiens) (UniProt Q14680); settings: Compound concentration 1000.0 nM
[31] = tested on: Receptor-type tyrosine-protein kinase FLT3 (Homo sapiens), P36888 [UNDEFINED MUTATION]; settings: Compound concentration 1000.0 nM
[32] = molecular target: Alpha-2B adrenergic receptor (Homo sapiens) (UniProt P18089); settings: Compound concentration 10.0 uM
[33] = molecular target: Serine/threonine-protein kinase ICK (Homo sapiens) (UniProt Q9UPZ9); settings: Compound concentration 1000.0 nM
[34] = tested on: Mast/stem cell growth factor receptor Kit (Homo sapiens), P10721 [D816V]; settings: Compound concentration 1000.0 nM
[35] = molecular target: Cyclin-dependent kinase-like 1 (Homo sapiens) (UniProt Q00532); settings: Compound concentration 1000.0 nM
[36] = tested on: Tyrosine-protein kinase ABL1 (Homo sapiens), P00519 [T315I]; settings: Compound concentration 1000.0 nM
[37] = molecular target: Serine/threonine-protein kinase Chk2 (Homo sapiens) (UniProt O96017); settings: Compound concentration 1000.0 nM
[38] = molecular target: Delta-type opioid receptor (Homo sapiens) (UniProt P41143); settings: Compound concentration 10.0 uM
[39] = tested on: Tyrosine-protein kinase ABL1 (Homo sapiens), P00519 [F317I]; settings: Compound concentration 1000.0 nM
[40] = molecular target: cGMP-dependent protein kinase 2 (Homo sapiens) (UniProt Q13237); settings: Compound concentration 1000.0 nM
[41] = molecular target: Bone morphogenetic protein receptor type-1B (Homo sapiens) (UniProt O00238); settings: Compound concentration 1000.0 nM
[42] = molecular target: Beta-2 adrenergic receptor (Homo sapiens) (UniProt P07550); settings: Compound concentration 10.0 uM
[43] = molecular target: Serine/threonine-protein kinase tousled-like 2 (Homo sapiens) (UniProt Q86UE8); settings: Compound concentration 1000.0 nM
[44] = molecular target: Proto-oncogene tyrosine-protein kinase receptor Ret (Homo sapiens) (UniProt P07949); settings: Compound concentration 1000.0 nM
[45] = molecular target: Mitogen-activated protein kinase kinase kinase kinase 3 (Homo sapiens) (UniProt Q8IVH8); settings: Compound concentration 1000.0 nM

D(2) dopamine receptor (Homo sapiens), sequence (P14416 whole entry): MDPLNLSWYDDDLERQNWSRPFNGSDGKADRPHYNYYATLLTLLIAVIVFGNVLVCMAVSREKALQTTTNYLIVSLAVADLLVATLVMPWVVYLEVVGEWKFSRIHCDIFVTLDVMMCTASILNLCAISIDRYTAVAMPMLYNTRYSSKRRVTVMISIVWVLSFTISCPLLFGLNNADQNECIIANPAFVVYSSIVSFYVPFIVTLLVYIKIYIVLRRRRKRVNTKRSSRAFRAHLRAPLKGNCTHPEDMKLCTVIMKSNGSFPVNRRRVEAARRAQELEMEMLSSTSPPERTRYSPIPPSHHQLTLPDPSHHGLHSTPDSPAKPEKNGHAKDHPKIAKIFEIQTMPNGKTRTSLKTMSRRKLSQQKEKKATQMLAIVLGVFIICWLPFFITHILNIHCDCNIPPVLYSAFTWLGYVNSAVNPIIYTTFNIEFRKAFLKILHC
Alpha-2B adrenergic receptor (Homo sapiens), sequence (P18089 whole entry): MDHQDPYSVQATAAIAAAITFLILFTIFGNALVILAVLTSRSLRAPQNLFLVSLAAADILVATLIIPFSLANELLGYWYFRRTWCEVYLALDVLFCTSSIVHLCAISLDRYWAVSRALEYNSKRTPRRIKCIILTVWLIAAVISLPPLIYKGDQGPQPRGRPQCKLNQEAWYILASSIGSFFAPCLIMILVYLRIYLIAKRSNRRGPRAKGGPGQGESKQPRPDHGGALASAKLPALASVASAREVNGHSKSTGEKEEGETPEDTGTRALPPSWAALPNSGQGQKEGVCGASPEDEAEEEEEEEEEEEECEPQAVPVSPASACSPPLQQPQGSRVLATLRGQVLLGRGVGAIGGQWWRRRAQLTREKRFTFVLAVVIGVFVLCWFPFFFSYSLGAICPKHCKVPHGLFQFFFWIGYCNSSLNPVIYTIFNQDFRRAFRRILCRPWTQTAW
Microtubule-associated serine/threonine-protein kinase 1 (Homo sapiens), sequence (Q9Y2H9 whole entry, looked up): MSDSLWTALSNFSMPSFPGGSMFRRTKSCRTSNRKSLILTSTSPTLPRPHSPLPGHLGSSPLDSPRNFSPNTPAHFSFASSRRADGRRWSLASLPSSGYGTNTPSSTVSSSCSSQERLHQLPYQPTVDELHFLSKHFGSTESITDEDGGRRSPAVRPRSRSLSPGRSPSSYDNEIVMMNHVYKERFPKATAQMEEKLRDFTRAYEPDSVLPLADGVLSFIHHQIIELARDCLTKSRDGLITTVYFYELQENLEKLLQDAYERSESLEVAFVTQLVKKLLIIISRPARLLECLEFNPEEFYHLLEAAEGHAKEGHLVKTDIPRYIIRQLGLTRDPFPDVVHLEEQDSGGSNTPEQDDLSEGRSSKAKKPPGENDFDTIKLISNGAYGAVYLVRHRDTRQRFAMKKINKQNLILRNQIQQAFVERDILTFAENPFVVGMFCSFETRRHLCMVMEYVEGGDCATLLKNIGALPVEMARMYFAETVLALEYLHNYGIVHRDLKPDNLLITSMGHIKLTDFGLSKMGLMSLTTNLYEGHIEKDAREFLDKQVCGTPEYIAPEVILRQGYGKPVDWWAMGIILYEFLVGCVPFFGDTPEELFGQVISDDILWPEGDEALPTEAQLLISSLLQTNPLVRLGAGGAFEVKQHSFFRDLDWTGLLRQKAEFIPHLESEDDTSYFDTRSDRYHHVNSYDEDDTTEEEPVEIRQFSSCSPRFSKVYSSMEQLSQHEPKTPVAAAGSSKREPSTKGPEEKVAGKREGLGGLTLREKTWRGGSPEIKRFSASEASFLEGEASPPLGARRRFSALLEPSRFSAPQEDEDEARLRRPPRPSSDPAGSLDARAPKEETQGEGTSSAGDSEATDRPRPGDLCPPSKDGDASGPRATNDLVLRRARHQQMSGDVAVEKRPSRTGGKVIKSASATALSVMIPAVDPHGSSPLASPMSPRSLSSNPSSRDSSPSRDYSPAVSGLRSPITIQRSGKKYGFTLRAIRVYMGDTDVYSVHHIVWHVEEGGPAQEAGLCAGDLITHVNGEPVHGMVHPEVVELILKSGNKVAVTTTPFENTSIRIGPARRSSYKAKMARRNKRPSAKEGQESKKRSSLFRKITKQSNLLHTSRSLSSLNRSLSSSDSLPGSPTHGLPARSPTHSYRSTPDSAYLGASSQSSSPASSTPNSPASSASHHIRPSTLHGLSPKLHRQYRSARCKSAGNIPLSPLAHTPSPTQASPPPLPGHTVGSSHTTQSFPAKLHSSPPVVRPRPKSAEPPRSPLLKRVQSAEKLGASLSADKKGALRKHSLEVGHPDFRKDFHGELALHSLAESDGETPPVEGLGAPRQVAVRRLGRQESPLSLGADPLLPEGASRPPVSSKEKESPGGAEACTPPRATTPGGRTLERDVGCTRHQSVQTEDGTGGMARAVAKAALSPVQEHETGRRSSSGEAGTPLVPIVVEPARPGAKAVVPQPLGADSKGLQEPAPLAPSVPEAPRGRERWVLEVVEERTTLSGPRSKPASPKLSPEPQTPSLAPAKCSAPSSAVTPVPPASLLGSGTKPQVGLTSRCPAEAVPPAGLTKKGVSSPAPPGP
Serine/threonine-protein kinase OSR1 (Homo sapiens), sequence (O95747 2-527 limits assumed): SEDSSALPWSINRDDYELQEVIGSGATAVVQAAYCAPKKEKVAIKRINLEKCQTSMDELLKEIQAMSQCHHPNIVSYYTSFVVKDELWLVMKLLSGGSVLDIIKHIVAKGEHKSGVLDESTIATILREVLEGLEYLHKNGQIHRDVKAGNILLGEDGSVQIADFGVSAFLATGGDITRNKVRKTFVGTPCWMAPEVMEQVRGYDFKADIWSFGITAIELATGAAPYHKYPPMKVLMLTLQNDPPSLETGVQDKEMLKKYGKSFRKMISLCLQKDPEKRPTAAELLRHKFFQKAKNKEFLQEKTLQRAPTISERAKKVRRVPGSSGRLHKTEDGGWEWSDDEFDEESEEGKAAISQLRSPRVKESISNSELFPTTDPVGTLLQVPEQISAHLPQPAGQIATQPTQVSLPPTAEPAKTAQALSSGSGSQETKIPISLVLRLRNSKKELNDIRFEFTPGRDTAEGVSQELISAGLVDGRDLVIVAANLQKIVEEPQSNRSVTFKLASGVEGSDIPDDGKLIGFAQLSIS
Serine/threonine-protein kinase D2 (Homo sapiens), sequence (Q9BZL6 whole entry): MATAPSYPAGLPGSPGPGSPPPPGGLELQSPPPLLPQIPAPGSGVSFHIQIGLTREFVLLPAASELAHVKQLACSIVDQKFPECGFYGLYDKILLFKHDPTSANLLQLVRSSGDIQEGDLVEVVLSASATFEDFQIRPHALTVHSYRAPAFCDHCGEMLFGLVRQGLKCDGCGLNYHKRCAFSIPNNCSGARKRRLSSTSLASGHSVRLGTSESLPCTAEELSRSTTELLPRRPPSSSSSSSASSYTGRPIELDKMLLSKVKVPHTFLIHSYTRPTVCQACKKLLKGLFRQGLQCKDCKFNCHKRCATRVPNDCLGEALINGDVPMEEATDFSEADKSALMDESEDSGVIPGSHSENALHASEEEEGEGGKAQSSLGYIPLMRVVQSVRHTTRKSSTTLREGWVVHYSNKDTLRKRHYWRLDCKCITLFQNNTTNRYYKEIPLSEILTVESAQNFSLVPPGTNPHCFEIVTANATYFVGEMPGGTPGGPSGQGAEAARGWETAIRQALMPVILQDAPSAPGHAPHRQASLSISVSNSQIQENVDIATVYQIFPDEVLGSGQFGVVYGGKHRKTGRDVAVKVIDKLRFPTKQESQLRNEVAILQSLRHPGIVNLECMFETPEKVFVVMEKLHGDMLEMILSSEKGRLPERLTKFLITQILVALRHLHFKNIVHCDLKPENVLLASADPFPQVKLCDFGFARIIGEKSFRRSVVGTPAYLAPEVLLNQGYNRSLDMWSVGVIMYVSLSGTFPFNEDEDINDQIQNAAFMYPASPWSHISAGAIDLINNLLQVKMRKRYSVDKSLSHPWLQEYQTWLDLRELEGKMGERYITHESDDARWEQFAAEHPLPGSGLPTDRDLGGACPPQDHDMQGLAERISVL
Discoidin domain-containing receptor 2 (Homo sapiens), sequence (Q16832 whole entry, the tested form may be a part): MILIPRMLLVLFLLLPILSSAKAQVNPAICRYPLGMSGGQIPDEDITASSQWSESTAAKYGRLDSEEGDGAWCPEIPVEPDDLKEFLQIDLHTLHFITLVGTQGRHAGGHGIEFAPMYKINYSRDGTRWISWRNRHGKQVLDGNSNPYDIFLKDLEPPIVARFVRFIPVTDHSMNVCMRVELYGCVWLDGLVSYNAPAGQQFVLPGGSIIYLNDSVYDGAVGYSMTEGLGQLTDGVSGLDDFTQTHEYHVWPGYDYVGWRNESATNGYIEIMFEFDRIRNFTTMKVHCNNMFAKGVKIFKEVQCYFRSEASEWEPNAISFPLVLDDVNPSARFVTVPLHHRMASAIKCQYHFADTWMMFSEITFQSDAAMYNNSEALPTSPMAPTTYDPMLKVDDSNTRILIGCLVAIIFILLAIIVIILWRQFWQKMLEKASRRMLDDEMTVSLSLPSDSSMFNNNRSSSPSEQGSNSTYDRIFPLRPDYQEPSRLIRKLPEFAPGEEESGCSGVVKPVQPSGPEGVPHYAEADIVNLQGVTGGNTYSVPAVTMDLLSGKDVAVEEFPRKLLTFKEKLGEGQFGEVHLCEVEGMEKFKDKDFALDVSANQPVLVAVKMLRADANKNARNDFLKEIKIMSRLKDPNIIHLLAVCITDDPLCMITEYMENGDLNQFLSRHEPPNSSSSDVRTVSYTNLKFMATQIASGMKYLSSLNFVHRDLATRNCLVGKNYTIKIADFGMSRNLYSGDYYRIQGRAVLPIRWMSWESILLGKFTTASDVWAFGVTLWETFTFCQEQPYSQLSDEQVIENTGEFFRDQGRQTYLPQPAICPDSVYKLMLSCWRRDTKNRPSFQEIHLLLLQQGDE

COc1cccc(CNC(=O)c2nc3scc(COCc4ccc(C(=O)O)cc4)c3c(=O)[nH]2)c1 [T-26c]
inactive: residual activity [1] 94.3% | residual activity [2] 100% | residual activity [3] 83.6% | residual activity [4] 94.3% | residual activity [5] 71.9% | residual activity [6] 89.2% | residual activity [7] 100% | residual activity [8] 87.3% | residual activity [9] 100% | residual activity [10] 86.8% | residual activity [11] 85.7% | residual activity [12] 67% | residual activity [13] 95.5% | residual activity [14] 84.4% | residual activity [15] 59.9% | residual activity [16] 81.3% | inhibition [17] 7.09% | residual activity [18] 74.9% | residual activity [19] 68.6% | residual activity [20] 100% | residual activity [21] 69.3% | residual activity [22] 90% | residual activity [23] 97.2% | residual activity [24] 100% | residual activity [25] 76.3% | residual activity [26] 62% | residual activity [27] 98.9% | residual activity [28] 65.3% | inhibition [29] -7.42% | residual activity [30] 100% | residual activity [31] 93.7% | inhibition [32] 11% | residual activity [33] 66.1% | residual activity [34] 100% | residual activity [35] 100% | residual activity [36] 77.5% | residual activity [37] 92% | inhibition [38] -5.04% | residual activity [39] 96.4% | residual activity [40] 100% | residual activity [41] 64.5% | inhibition [42] 25.4% | residual activity [43] 100% | residual activity [44] 72.3% | residual activity [45] 99.8%
